Experimental data taken from US11345702B1 (Myoforte Therapeutics, Inc., priority 2020, dated 2022).
pIC50: −log10 of the molar value. Where “and” joins values, the source holds several entries; their conditions need not be identical. Equal values may be shown once.

Target: 15-PGDH/HPGD (Homo sapiens (Human), UniProt P15428)
Experiment: hPGDH inhibitor screening biochemical assay
Settings: read-out: hPGDH: Average IC50
Method: A hydroxyprostaglandin dehydrogenase inhibition screening biochemical assay can be performed to assess the synthesized inhibitors provided herein. Provided herein is an exemplary biochemical assay for hPGDH inhibitor screening.
The in vitro biochemical assay can be performed in white, 384 plates in total 20 μl reaction volume consisting of 10 nM of 15-PGDH/HPGD (R&D System #5660-DH), 15 μM Prostaglandin E2 (Sigma, Cat #P5640-10MG) and 0.25 mM (3-Nicotinamide adenine dinucleotide sodium salt (Sigma, Cat #N0632-5G) made in reaction buffer (50 mM Tris-HCl, pH 7.5, 0.01% Tween 20) at 10-point dose response curve for test/tool compounds. Briefly, 5 μl (4×) of compounds solution and 5 μl (final concentration, 10 nM) of enzyme solution is added to white 384 well plates and incubated for 10 mins at 37° C. 5 μl (4×) of Prostaglandin E2 and 5 μl (4×) of β-Nicotinamide adenine dinucleotide sodium salt is added to the wells and incubated for 10 mins at room temperature. Fluorescence is recorded at ex/em=340 nm/485 nm. The percentage (%) inhibition of enzyme activity was determined relative to positive control (1% DMSO) and IC50 was calculated using GraphPad prism software (four parameter-variable slope equation).

Sequence of 15-PGDH/HPGD (P15428 whole entry): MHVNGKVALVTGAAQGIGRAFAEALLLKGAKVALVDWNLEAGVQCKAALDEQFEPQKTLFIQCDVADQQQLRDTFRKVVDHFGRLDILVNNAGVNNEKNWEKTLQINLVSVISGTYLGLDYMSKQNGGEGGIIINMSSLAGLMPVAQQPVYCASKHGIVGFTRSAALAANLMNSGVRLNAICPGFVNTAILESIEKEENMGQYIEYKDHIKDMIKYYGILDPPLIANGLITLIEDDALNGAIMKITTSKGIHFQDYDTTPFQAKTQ

pIC50	SMILES
≤ 6.00	CS(=O)(=O)n1ccc2cc(C(=O)N3CCCCC3)cnc21 [MF-DH-311, (1-(methylsulfonyl)-1H-pyrrolo[2,3-b]pyridin-5-yl)(piperidin-1-yl)methanone]
≤ 6.00	Cc1ccc(S(=O)(=O)n2ccc3cc(C(=O)N4CCCCC4)cnc32)cc1 [MF-DH-312, piperidin-1-yl(1-tosyl-1H-pyrrolo[2,3-b]pyridin-5-yl)methanone]
> 7.00	Nc1cc(-n2ccc3cc(C(=O)N4CCCCC4)cnc32)ccn1 [MF-DH-317]
> 7.00	O=C(c1cnc2c(ccn2-c2ccn3ccnc3c2)c1)N1CCCCC1 [MF-DH-318]
> 7.00	O=C(c1cnc2c(ccn2-c2ccc3[nH]ncc3c2)c1)N1CCCCC1 [MF-DH-319, (1-(1H-indazol-5-yl)-1H-pyrrolo[2,3-b]pyridin-5-yl)(piperidin-1-yl)methanone]
> 7.00	Cc1cncc(-n2ccc3cc(C(=O)N4CCCCC4)cnc32)c1 [MF-DH-320]
> 7.00	O=C(c1cnc2c(ccn2-c2ccc(O)nc2)c1)N1CCCCC1 [MF-DH-321]
> 7.00	Nc1cncc(-n2ccc3cc(C(=O)N4CCCCC4)cnc32)c1 [MF-DH-322]
> 7.00	COc1ccc(-n2ccc3cc(C(=O)N4CCCCC4)cnc32)cn1 [MF-DH-323]
6.00 to 7.00	COc1ccc(-n2ccc3cc(C(=O)N4CCC(C(F)(F)F)CC4)cnc32)cc1 [MF-DH-324]
≤ 6.00	COc1ccc(-n2ccc3cc(C(=O)N4CCC(c5ccccc5)CC4)cnc32)cc1 [MF-DH-325]
≤ 6.00	COc1ccc(-n2ccc3cc(C(=O)N4CC(c5ccccc5)C4)cnc32)cc1 [MF-DH-326]
≤ 6.00	COc1ccc(-n2ccc3cc(C(=O)N4CCN(CC(F)(F)F)CC4)cnc32)cc1 [MF-DH-327]
6.00 to 7.00	COc1ccc(-n2ccc3cc(C(=O)N4[C@H](C)CCC[C@@H]4C)cnc32)cc1 [MF-DH-328, ((2R,6S)-2,6-dimethylpiperidin-1-yl)(1-(4-methoxyphenyl)-1H-pyrrolo[2,3-b]pyridin-5-yl)methanone]
> 7.00	COc1ccc(-n2ccc3cc(C(=O)N4C[C@H](C)C[C@H](C)C4)cnc32)cc1 [MF-DH-329, ((3R,5S)-3,5-dimethylpiperidin-1-yl)(1-(4-methoxyphenyl)-1H-pyrrolo[2,3-b]pyridin-5-yl)methanone]
> 7.00	COc1ccc(-n2c(CCC(C)(C)O)cc3cc(C(=O)N4CCCCC4)cnc32)cc1 [MF-DH-330, (2-(3-hydroxy-3-methylbutyl)-1-(4-methoxyphenyl)-1H-pyrrolo[2,3-b]pyridin-5-yl)(piperidin-1-yl)methanone]
> 7.00	Nc1ccc(-n2ccc3cc(C(=O)N4CCCCC4)cnc32)cn1 [MF-DH-336]
> 7.00	COc1ccc(Cn2cc3cc(-n4ccc5cc(C(=O)N6CCCCC6)cnc54)ccc3n2)cc1 [MF-DH-340]
> 7.00	NC(=O)c1ccc(-n2ccc3cc(C(=O)N4CCC(F)CC4)cnc32)cc1 [MF-DH-343]
> 7.00	N#Cc1cccc(-n2ccc3cc(C(=O)N4CCC(F)CC4)cnc32)c1 [MF-DH-344]
> 7.00	NC(=O)c1cccc(-n2ccc3cc(C(=O)N4CCC(F)CC4)cnc32)c1 [MF-DH-345]
> 7.00	CN(C)c1ccc(-n2ccc3cc(C(=O)N4CCC(F)CC4)cnc32)cc1 [MF-DH-346]
> 7.00	O=C(c1cnc2c(ccn2-c2ccc(CO)cc2)c1)N1CCC(F)CC1 [MF-DH-347]
> 7.00	O=C(c1cnc2c(ccn2-c2cccc(CO)c2)c1)N1CCC(F)CC1 [MF-DH-348]
> 7.00	NC(=O)c1cncc(-n2ccc3cc(C(=O)N4CCC(F)CC4)cnc32)c1 [MF-DH-351]
> 7.00	NC(=O)c1ccc(-n2ccc3cc(C(=O)N4CCC(F)CC4)cnc32)cn1 [MF-DH-355]

pIC50	SMILES
> 7.00	NC(=O)c1cncc(-n2ccc3cc(C(=O)N4CCCCC4)cnc32)c1 [MF-DH-361]
> 7.00	CNC(=O)c1cncc(-n2ccc3cc(C(=O)N4CCCCC4)cnc32)c1 [MF-DH-362]
> 7.00	CN(C)C(=O)c1cncc(-n2ccc3cc(C(=O)N4CCCCC4)cnc32)c1 [MF-DH-363]
> 7.00	N#Cc1cncc(-n2ccc3cc(C(=O)N4CCCCC4)cnc32)c1 [MF-DH-364]
> 7.00	CN(C)c1ccc(-n2ccc3cc(C(=O)N4CCCCC4)cnc32)cn1 [MF-DH-366]
> 7.00	COCCNC(=O)c1ccc(-n2ccc3cc(C(=O)N4CCCCC4)cnc32)cc1 [MF-DH-367]
> 7.00	CNC(=O)c1ccc(-n2ccc3cc(C(=O)N4CCCCC4)cnc32)cc1 [MF-DH-368]
> 7.00	CN(C)C(=O)c1ccc(-n2ccc3cc(C(=O)N4CCCCC4)cnc32)cc1 [MF-DH-369]
> 7.00	CC(C)(O)c1ccc(-n2ccc3cc(C(=O)N4CCCCC4)cnc32)cc1 [MF-DH-371]
6.00 to 7.00	CC(C)(O)c1cccc(-n2ccc3cc(C(=O)N4CCCCC4)cnc32)c1 [MF-DH-375]
6.00 to 7.00	CC(N)c1cccc(-n2ccc3cc(C(=O)N4CCCCC4)cnc32)c1 (stereo not shown) [MF-DH-376, (1-(3-(1-aminoethyl)phenyl)-1H-pyrrolo[2,3-b]pyridin-5-yl)(piperidin-1-yl)methanone]
> 7.00	NC(=O)c1ncc(-n2ccc3cc(C(=O)N4CCCCC4)cnc32)cn1 [MF-DH-384]
6.00 to 7.00	COc1ccc(-n2ccc3c(NCc4ccccc4)c(C(=O)N4CCCCC4)cnc32)cc1 [MF-DH-385, (4-(benzylamino)-1-(4-methoxyphenyl)-1H-pyrrolo[2,3-b]pyridin-5-yl) (piperidin-1-yl) methanone]
> 7.00	N#Cc1ccc(-n2cc(Cl)c3cc(C(=O)N4CCC(F)CC4)cnc32)cc1 [MF-DH-388]
> 7.00	N#Cc1ccc(-n2ccc3cc(C(=O)N4CCCCC4)cnc32)cn1 [MF-DH-389]
> 7.00	Cc1cc(-n2ccc3cc(C(=O)N4CCCCC4)cnc32)cnc1N [MF-DH-392]
> 7.00	Nc1ncc(-n2ccc3cc(C(=O)N4CCCCC4)cnc32)cc1Cl [MF-DH-393]
> 7.00	NC(=O)c1ccc(-n2ccc3cc(C(=O)N4CCC(F)(F)CC4)cnc32)cc1 [MF-DH-394]
> 7.00	N#Cc1ncc(-n2ccc3cc(C(=O)N4CCCCC4)cnc32)cn1 [MF-DH-397]
> 7.00	Cc1nc(-c2cccc(-n3ccc4cc(C(=O)N5CCCCC5)cnc43)c2)no1 [MF-DH-402]
6.00 to 7.00 and > 7.00	N#Cc1ccc(-n2ccc3cc(C(=O)N4C[C@H](F)C[C@H](F)C4)cnc32)cc1 [MF-DH-417, 4-(5-((3R,5S)-3,5-difluoropiperidine-1-carbonyl)-1H-pyrrolo[2,3-b]pyridin-1-yl)benzonitrile]
> 7.00	CCNC(=O)c1ccc(-n2ccc3cc(C(=O)N4CCC(F)(F)CC4)cnc32)cc1 [MF-DH-418]
> 7.00	O=C(NC1CCNCC1)c1ccc(-n2ccc3cc(C(=O)N4CCC(F)(F)CC4)cnc32)cc1 [MF-DH-419]
> 7.00	O=C(NC1CNC1)c1ccc(-n2ccc3cc(C(=O)N4CCC(F)(F)CC4)cnc32)cc1 [MF-DH-420]
> 7.00	O=C(O)c1cncc(-n2ccc3cc(C(=O)N4CCC(F)(F)CC4)cnc32)c1 [MF-DH-425, 5-(5-(4,4-difluoropiperidine-1-carbonyl)-1H-pyrrolo[2,3-b]pyridin-1-yl)nicotinic acid]
> 7.00	O=C(O)Cc1ccc(-n2ccc3cc(C(=O)N4CCC(F)(F)CC4)cnc32)cc1 [MF-DH-426, 2-(4-(5-(4,4-difluoropiperidine-1-carbonyl)-1H-pyrrolo[2,3-b]pyridin-1-yl)phenyl)acetic acid]
